Tests used:
[1] = system: reperfusion injury mouse model; test: Mouse myocardial necrosis in reperfusion injury model, Annexin-Vivo750 fluorescent dye; format: in vivo; conditions: Annexin-Vivo750, FIG. 7B
Experimental: In order to confirm the inhibitory effect of deoxycholic acid among the bile acids on myocardial necrosis caused by reperfusion injury, the test was performed to confirm mouse myocardial necrosis using Annexin-Vivo750 fluorescent dye.
After 24 hours, Annexin-Vivo750 fluorescent dye was injected into the mouse model prepared in Example 3 to examine the effect of deoxycholic acid (1, 2, 5 mg/kg (mpk)) by the concentration. Annexin dyes are known to bind where apoptosis occurs and to show fluorescence.

[2] = system: mitochondrial permeability transition pore (mPTP); test: TMRM staining of 293T cells after CCCP-induced mPTP opening; format: cell-based; conditions: 1 μM and 10 μM, CCCP 50 μM, FIG. 3
[3] = system: reperfusion injury mouse model; test: Reperfusion injury mouse model, TTC staining of infarcted heart tissue
beta-catenin = test: Nuclear beta-catenin luciferase assay in TCF/LEF reporter_HEK293 cell line; format: cell-based; conditions: TCF/LEF reporter_HEK293, 1 μm or 10 μm, 24 hours, FIG. 1

Row | Structure (SMILES) | decrease of myocardial death compared to the control group with reperfusion surgery ([1]; 1 mpk) [%] | decrease of myocardial death compared to the control group with reperfusion surgery ([1]; 2 mpk) [%] | inhibition of mitochondrial injury [2] | reduction of the infarcted area ([3]; 2 mg/kg, FIG. 6B) | concentration at which cells died ([3]; reperfusion injury mouse model) [mg/kg] | concentration at which the effect was shown ([3]; reperfusion injury mouse model) [mg/kg] | beta-catenin levels in the nucleus (luciferase activity) (beta-catenin)
1 | C[C@H](CCC(=O)O)[C@H]1CC[C@H]2[C@@H]3CC[C@@H]4C[C@H](O)CC[C@]4(C)[C@H]3C[C@H](O)[C@]12C [deoxycholic acid] | ≥ 40 | ≥ 40 | about 90% | about 50% | ≥ 10 | ≤ 2 | –
2 | C[C@H](CCC(=O)O)[C@H]1CC[C@H]2[C@@H]3[C@H](O)C[C@@H]4C[C@H](O)CC[C@]4(C)[C@H]3C[C@H](O)[C@]12C [cholic acid] | – | – | about 90% | – | – | – | significantly increased
3 | C[C@H](CCC(=O)NCCS(=O)(=O)O)[C@H]1CC[C@H]2[C@@H]3[C@H](O)C[C@@H]4C[C@H](O)CC[C@]4(C)[C@H]3C[C@H](O)[C@]12C [TauroCA, taurocholic acid] | – | – | – | – | – | – | significantly increased

Reference: patent publication US11185553B2, “Pharmaceutical composition for preventing or treating ischemic-reperfusion injury comprising bile acids” (priority 2016, dated 2021)
